The values that follow come from PubChem BioAssay (NCI).

Molecules are shown by their SMILES.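 In this assay, cells in 96-well plates receive the compound at five concentrations for 48 hours. Endpoints are linearly interpolated between the surrounding concentrations. GI50 is the concentration that inhibits growth by half. At the TGI there is no net growth.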

Test systems include NCI-H522 lung; UO-31 renal; HOP-62 NSCLC; IGROV1 ovarian; OVCAR-8 ovarian; KM12 colon; NCI/ADR-RES ovarian; SK-OV-3 ovarian; SNB-75 CNS; SF-539 CNS.
Experiment in all cases: NCI tumour cell line growth inhibition, 48 h

Regarding `Fc1ccccc1CN1COc2c(cc(Cl)c3cccnc23)C1`, the TGI in the test with NCI-H522 lung is 14.1 µM; in the test with UO-31 renal it was 17.7 µM; with HOP-62 NSCLC it was 16.6 µM; in the test with IGROV1 ovarian, 18.6 µM; in the test with OVCAR-8 ovarian, 10.7 µM; in the test on KM12 colon, 12.1 µM. Also, the TGI with NCI/ADR-RES ovarian stood at 0.54 µM; in the test with SK-OV-3 ovarian it was 19.6 µM; with SNB-75 CNS, 14.7 µM; with SF-539 CNS it was 10.6 µM.
With `Cc1cc(NC(=O)NCc2ccc(N3C(N)=NC(N)=NC3(C)C)cc2)ccc1S(=O)(=O)F`, the GI50 with NCI-H522 lung was 6.1 µM; with UO-31 renal it was over 100 µM; in the test on HOP-62 NSCLC it was 12.8 µM; in the test with IGROV1 ovarian, 0.388 µM; in the test with OVCAR-8 ovarian, 6.76 µM; in the test on KM12 colon, 0.665 µM. The GI50 is over 100 µM in the test with NCI/ADR-RES ovarian, 36.6 µM in the test with SK-OV-3 ovarian, over 32.3 µM with SNB-75 CNS and 2.38 µM in the test on SF-539 CNS. The TGI in the test on NCI-H522 lung, in the test with UO-31 renal, with HOP-62 NSCLC, in the test with IGROV1 ovarian, in the test on OVCAR-8 ovarian and with KM12 colon was over 100 µM each time. The TGI is over 100 µM in the test with NCI/ADR-RES ovarian, over 100 µM in the test with SK-OV-3 ovarian, over 100 µM in the test on SNB-75 CNS and over 69.2 µM in the test with SF-539 CNS.
As for `[O]=[Sn]([CH]1CCCCC1)[CH]1CCCCC1`, the GI50 in the test with NCI-H522 lung is 0.0711 µM; in the test with UO-31 renal, 0.293 µM; in the test with HOP-62 NSCLC, 0.407 µM; with IGROV1 ovarian it was 0.274 µM; in the test on OVCAR-8 ovarian it was 0.298 µM; in the test on KM12 colon it was 0.341 µM. Besides, the GI50 was 0.357 µM with NCI/ADR-RES ovarian, 1.2 µM in the test on SK-OV-3 ovarian, 0.158 µM in the test on SNB-75 CNS and 0.24 µM in the test on SF-539 CNS. Besides, the TGI in the test on NCI-H522 lung amounted to 0.217 µM; in the test on UO-31 renal, 1.08 µM; in the test on HOP-62 NSCLC, 1.54 µM; in the test on IGROV1 ovarian, 0.915 µM; in the test on OVCAR-8 ovarian it was 1.17 µM; in the test on KM12 colon it was 1.25 µM. For the same compound, the TGI in the test on NCI/ADR-RES ovarian was 1.63 µM; in the test on SK-OV-3 ovarian, 2.52 µM; in the test with SNB-75 CNS, 0.562 µM; in the test on SF-539 CNS it was 0.71 µM.
On to `Nc1ccc(CC[C@H]2CCC/C=C/[C@@H]3C[C@H](O)C[C@H]3[C@H](O)/C=C/C(=O)O2)cc1`, for which the GI50 in the test on NCI-H522 lung is 0.0816 µM; with UO-31 renal, 0.0276 µM; in the test with HOP-62 NSCLC, 0.0463 µM; with IGROV1 ovarian, 0.0367 µM; in the test on OVCAR-8 ovarian, 0.0407 µM; in the test with KM12 colon, 0.0235 µM. The GI50 in the test on NCI/ADR-RES ovarian was 0.0376 µM; with SK-OV-3 ovarian, 0.0483 µM; in the test with SNB-75 CNS, 0.0189 µM; in the test on SF-539 CNS, 0.0562 µM. The TGI with NCI-H522 lung is 0.375 µM; in the test on UO-31 renal, 2.34 µM; with IGROV1 ovarian, 0.175 µM; in the test with OVCAR-8 ovarian, over 100 µM; in the test with KM12 colon it was 0.0615 µM; with SK-OV-3 ovarian, over 100 µM. Moreover, the TGI in the test with SNB-75 CNS and in the test with SF-539 CNS was over 100 µM in each case.
Consider `O=c1c(I)c[nH]cc1I`, for which the GI50 in the test with NCI-H522 lung is over 100 µM; in the test on UO-31 renal it was over 100 µM; in the test on HOP-62 NSCLC it was over 100 µM; in the test on IGROV1 ovarian it was 98.3 µM; in the test with OVCAR-8 ovarian, over 100 µM; in the test with KM12 colon it was over 100 µM. The GI50 with NCI/ADR-RES ovarian, in the test with SK-OV-3 ovarian, in the test on SNB-75 CNS and with SF-539 CNS was over 100 µM in each case. The TGI with NCI-H522 lung, with UO-31 renal, in the test on HOP-62 NSCLC, in the test with IGROV1 ovarian, in the test on OVCAR-8 ovarian and in the test with KM12 colon was over 100 µM throughout. Further, the TGI in the test on NCI/ADR-RES ovarian, in the test on SK-OV-3 ovarian, in the test with SNB-75 CNS and in the test on SF-539 CNS was over 100 µM each time.
Regarding `Cc1cc(N2CCC(N3CCCC3)CC2)nc(/N=C(\N)Nc2ccc(Cl)c(Cl)c2)n1`, the GI50 with NCI-H522 lung was 1.52 µM; in the test on UO-31 renal, 1.44 µM; with HOP-62 NSCLC, 1.81 µM; in the test on IGROV1 ovarian, 2.14 µM; in the test with OVCAR-8 ovarian it was 1.91 µM; in the test on KM12 colon it was 1.72 µM. Also, the GI50 with NCI/ADR-RES ovarian is 2.58 µM; in the test with SK-OV-3 ovarian it was 1.88 µM; in the test with SNB-75 CNS, 1.58 µM; in the test on SF-539 CNS, 1.72 µM. For the same compound, the TGI in the test on NCI-H522 lung came to 3.32 µM; in the test with UO-31 renal, 2.85 µM; in the test with HOP-62 NSCLC it was 3.8 µM; in the test on IGROV1 ovarian, 5.11 µM; in the test with OVCAR-8 ovarian it was 3.77 µM; with KM12 colon, 3.64 µM. For the same compound, the TGI with NCI/ADR-RES ovarian turned out to be 7.66 µM; with SK-OV-3 ovarian, 3.49 µM; with SNB-75 CNS it was 3.12 µM; with SF-539 CNS, 3.54 µM.
As for `Cc1ccc(-c2nc(NCCOCCOCCN)nc(N3CCN(c4ccccn4)CC3)n2)cc1`, the GI50 in the test with NCI-H522 lung was 18.4 µM; with UO-31 renal, 13.3 µM; in the test with HOP-62 NSCLC, 16.7 µM; in the test with IGROV1 ovarian it was 19.4 µM; with OVCAR-8 ovarian it was 17.8 µM; with KM12 colon it was 16.6 µM. Besides, the GI50 in the test on NCI/ADR-RES ovarian is 15.3 µM; in the test with SK-OV-3 ovarian, 19.1 µM; in the test with SNB-75 CNS, 13.9 µM; in the test on SF-539 CNS, 16.8 µM. Besides, the TGI in the test with NCI-H522 lung was 37 µM; with UO-31 renal it was 29.9 µM; in the test with HOP-62 NSCLC, 31.4 µM; in the test on IGROV1 ovarian, 38 µM; with OVCAR-8 ovarian, 37.5 µM; with KM12 colon, 32.9 µM. Besides, the TGI in the test on NCI/ADR-RES ovarian was 31.1 µM; with SK-OV-3 ovarian, 35.6 µM; in the test with SNB-75 CNS it was 27.4 µM; with SF-539 CNS, 35.1 µM.
With `CNC(=O)CCN1CCN(CC/C=C2\c3ccccc3Sc3ccc(Cl)cc32)CC1`, the GI50 is 20 µM in the test on NCI-H522 lung; 11.4 µM in the test with UO-31 renal; 14.6 µM in the test with HOP-62 NSCLC; 15.1 µM with IGROV1 ovarian; 14.4 µM in the test on OVCAR-8 ovarian; 7.53 µM in the test on KM12 colon. Moreover, the GI50 in the test with NCI/ADR-RES ovarian was 7.08 µM; in the test on SK-OV-3 ovarian, 16.4 µM; in the test on SNB-75 CNS, 7.43 µM; in the test on SF-539 CNS, 12.5 µM. Moreover, the TGI with NCI-H522 lung came to 43.8 µM; in the test with UO-31 renal, 27.4 µM; in the test on HOP-62 NSCLC, 32.7 µM; with IGROV1 ovarian it was 37.3 µM; with OVCAR-8 ovarian, 32.2 µM; in the test with KM12 colon it was 23.5 µM. Also, the TGI with NCI/ADR-RES ovarian worked out at 16.5 µM; in the test with SK-OV-3 ovarian, 31.2 µM; with SNB-75 CNS, 23.1 µM; with SF-539 CNS, 25.6 µM.
